Reference: article PMC4491433 (Molecular and cellular endocrinology, 2010)

Experiments:
[1] = target: T1, human FSH receptor (hFSHR) (Homo sapiens, UniProt P23945); assay: HTRF cAMP inhibition; format: cell-based
T1 sequence (P23945 18-695): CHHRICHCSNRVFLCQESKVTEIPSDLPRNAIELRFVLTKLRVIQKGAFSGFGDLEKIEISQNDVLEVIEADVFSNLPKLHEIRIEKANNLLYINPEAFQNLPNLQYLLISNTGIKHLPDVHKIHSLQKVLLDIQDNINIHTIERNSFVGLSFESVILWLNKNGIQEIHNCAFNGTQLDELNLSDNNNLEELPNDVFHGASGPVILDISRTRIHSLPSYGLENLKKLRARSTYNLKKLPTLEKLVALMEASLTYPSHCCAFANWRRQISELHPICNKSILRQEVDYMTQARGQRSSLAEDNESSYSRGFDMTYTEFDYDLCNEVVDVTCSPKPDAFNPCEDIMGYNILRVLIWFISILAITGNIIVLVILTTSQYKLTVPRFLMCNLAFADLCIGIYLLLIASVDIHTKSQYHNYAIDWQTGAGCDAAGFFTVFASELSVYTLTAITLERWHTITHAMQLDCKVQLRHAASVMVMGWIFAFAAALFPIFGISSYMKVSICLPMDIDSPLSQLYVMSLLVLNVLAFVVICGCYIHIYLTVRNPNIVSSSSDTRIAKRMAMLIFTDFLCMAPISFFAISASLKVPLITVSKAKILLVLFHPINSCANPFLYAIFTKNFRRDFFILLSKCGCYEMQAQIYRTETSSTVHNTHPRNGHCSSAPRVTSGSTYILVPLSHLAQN

hLH receptor = hLH receptor (Homo sapiens, UniProt P22888); assay: inhibition of LH EC80 response at hLH receptor; format: cell-based
hLH receptor, sequence (P22888 27-699): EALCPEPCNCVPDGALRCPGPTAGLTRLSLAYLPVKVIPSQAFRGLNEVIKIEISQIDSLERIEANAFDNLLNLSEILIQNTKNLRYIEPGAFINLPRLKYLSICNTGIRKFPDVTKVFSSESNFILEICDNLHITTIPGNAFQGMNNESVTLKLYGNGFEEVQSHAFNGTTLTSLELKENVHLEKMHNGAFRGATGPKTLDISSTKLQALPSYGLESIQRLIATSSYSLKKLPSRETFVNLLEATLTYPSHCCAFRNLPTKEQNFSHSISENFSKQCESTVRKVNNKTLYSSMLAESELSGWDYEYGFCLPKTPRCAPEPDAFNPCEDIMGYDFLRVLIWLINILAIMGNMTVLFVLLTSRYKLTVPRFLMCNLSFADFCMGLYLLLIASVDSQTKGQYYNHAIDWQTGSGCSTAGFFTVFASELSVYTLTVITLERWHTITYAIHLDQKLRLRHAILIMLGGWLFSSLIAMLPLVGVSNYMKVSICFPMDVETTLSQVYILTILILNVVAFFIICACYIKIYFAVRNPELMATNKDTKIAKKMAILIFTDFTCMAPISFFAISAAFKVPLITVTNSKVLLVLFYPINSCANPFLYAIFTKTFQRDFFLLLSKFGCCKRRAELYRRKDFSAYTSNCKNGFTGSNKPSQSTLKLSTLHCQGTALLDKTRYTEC

`COc1ccc(C(=O)Nc2ccc(C(C)(C)C#N)cc2)cc1OC` [ADX61623] was tested, and the IC50 [1] was 700 ± 200 nM and the IC50 (hLH receptor) was 3400 ± 800 nM.
